# Reference: ChEMBL document CHEMBL1138938, “Design, synthesis, and SAR studies on a series of 2-pyridinylpiperazines as potent antagonists of the melanocortin-4 receptor” (Bioorg Med Chem Lett, 2006)
# What was measured:
# [1] = biological target: Melanocortin receptor 4 (Homo sapiens, UniProt P32245); test: Displacement of [125I]NDP-MSH from human MC4R expressed in HEK293 cells; assay type: cell-based
# [2] = Intrinsic clearance in rat liver microsome; assay type: ADME; settings: liver microsomes
# [3] = Oral bioavailability in rat; assay type: ADME, organism-based; settings: in vivo
# [4] = biological target: Melanocortin receptor 5 (Homo sapiens, UniProt P33032); test: Displacement of [125I]NDP-MSH from human MC5R expressed in HEK293 cells; assay type: cell-based
# [5] = biological target: Melanocortin receptor 3 (Homo sapiens, UniProt P41968); test: Displacement of [125I]NDP-MSH from human MC3R expressed in HEK293 cells; assay type: cell-based
# Melanocortin receptor 3, sequence (P41968 whole entry): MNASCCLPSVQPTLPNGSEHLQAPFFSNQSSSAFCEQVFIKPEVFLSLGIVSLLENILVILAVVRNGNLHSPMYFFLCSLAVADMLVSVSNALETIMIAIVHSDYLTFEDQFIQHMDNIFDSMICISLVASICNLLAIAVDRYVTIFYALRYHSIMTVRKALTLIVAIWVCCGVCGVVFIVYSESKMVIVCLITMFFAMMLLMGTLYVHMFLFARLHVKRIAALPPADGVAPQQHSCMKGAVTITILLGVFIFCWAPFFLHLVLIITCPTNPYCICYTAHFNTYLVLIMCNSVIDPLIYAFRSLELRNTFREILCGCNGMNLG
# Melanocortin receptor 4, sequence (P32245 whole entry): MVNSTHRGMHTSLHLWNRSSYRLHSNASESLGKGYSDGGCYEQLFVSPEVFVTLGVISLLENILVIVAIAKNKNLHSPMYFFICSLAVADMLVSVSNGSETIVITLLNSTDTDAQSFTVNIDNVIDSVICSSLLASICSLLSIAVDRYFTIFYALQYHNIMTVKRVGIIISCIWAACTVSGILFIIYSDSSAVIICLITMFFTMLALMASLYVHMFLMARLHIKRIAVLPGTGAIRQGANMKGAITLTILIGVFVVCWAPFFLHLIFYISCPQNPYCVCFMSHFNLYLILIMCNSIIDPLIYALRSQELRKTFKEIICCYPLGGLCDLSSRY
# Melanocortin receptor 5, sequence (P33032 whole entry): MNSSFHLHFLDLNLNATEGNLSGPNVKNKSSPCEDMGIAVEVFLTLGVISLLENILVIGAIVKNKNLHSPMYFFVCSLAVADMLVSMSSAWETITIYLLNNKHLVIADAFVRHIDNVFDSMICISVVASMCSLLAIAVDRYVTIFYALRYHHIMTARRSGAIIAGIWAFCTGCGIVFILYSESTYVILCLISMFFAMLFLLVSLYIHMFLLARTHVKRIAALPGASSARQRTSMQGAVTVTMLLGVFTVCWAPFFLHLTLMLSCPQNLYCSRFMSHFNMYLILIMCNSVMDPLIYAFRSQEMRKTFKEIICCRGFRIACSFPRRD
SMILES,Ki [1],further results
CC(C)NC(=O)NCc1cccnc1N1CCN(C(=O)[C@@H](Cc2ccc(Cl)cc2Cl)NC(=O)CCN)CC1,1300 nM,
NCCC(=O)N[C@H](Cc1ccc(Cl)cc1Cl)C(=O)N1CCN(c2ncccc2CNC(=O)c2ccco2)CC1,2600 nM,
NCCC(=O)N[C@H](Cc1ccc(Cl)cc1Cl)C(=O)N1CCN(c2ncccc2CNC(=O)NCc2cccs2)CC1,750 nM,
NCCC(=O)N[C@H](Cc1ccc(Cl)cc1Cl)C(=O)N1CCN(c2ncccc2CNC(=O)c2ccc(F)cc2)CC1,2200 nM,
CC(=O)NCc1cccnc1N1CCN(C(=O)[C@@H](Cc2ccc(Cl)cc2Cl)NC(=O)CCN)CC1,2800 nM,
NCCC(=O)N[C@H](Cc1ccc(Cl)cc1Cl)C(=O)N1CCN(c2ncccc2CNC(=O)Cc2ccc(F)cc2)CC1,1000 nM,
NCCC(=O)N[C@H](Cc1ccc(Cl)cc1Cl)C(=O)N1CCN(c2ncccc2CNC(=O)Nc2ccccc2F)CC1,1100 nM,
NCCC(=O)N[C@H](Cc1ccc(Cl)cc1Cl)C(=O)N1CCN(c2ncccc2CNC(=O)NCc2ccccc2F)CC1,1000 nM,
NCCC(=O)N[C@H](Cc1ccc(Cl)cc1Cl)C(=O)N1CCN(c2ncccc2CNC(=O)Oc2ccccc2)CC1,1200 nM,
NCCC(=O)N[C@H](Cc1ccc(Cl)cc1Cl)C(=O)N1CCN(c2ncccc2CNC(=O)Nc2ccccc2)CC1,710 nM,
COc1ccccc1NC(=O)NCc1cccnc1N1CCN(C(=O)[C@@H](Cc2ccc(Cl)cc2Cl)NC(=O)CCN)CC1,1300 nM,
COc1ccc(C(=O)NCc2cccnc2N2CCN(C(=O)[C@@H](Cc3ccc(Cl)cc3Cl)NC(=O)CCN)CC2)cc1,1500 nM,
COCC(=O)NCc1cccnc1N1CCN(C(=O)[C@@H](Cc2ccc(Cl)cc2Cl)NC(=O)CCN)CC1,2800 nM,
COc1ccccc1OC(=O)NCc1cccnc1N1CCN(C(=O)[C@@H](Cc2ccc(Cl)cc2Cl)NC(=O)CCN)CC1,1800 nM,
NCCC(=O)N[C@H](Cc1ccc(Cl)cc1Cl)C(=O)N1CCN(c2ncccc2CNC(=O)c2cccs2)CC1,1800 nM,
NCCC(=O)N[C@H](Cc1ccc(Cl)cc1Cl)C(=O)N1CCN(c2ncccc2CNC(CO)CO)CC1,1500 nM,
NCCC(=O)N[C@H](Cc1ccc(Cl)cc1Cl)C(=O)N1CCN(c2ncccc2CNC(=O)c2ccccc2)CC1,1800 nM,

# Further lines, with some results ahead:
Ki [1],SMILES,further results
1.6 nM,COc1ccccc1CCNCc1ccccc1N1CCN(C(=O)[C@@H](Cc2ccc(Cl)cc2Cl)NC(=O)CCN)CC1,
710 nM,CCC(CO)NCc1cccnc1N1CCN(C(=O)[C@@H](Cc2ccc(Cl)cc2Cl)NC(=O)CCN)CC1 (stereo not given in full),
520 nM,NCCC(=O)N[C@H](Cc1ccc(Cl)cc1Cl)C(=O)N1CCN(c2ncccc2CNCCO)CC1,
8.8 nM,COCC(C)NCc1ccccc1N1CCN(C(=O)[C@@H](Cc2ccc(Cl)cc2Cl)NC(=O)CCN)CC1 (stereo not given in full),
420 nM,CC(CO)NCc1cccnc1N1CCN(C(=O)[C@@H](Cc2ccc(Cl)cc2Cl)NC(=O)CCN)CC1C (stereo not given in full),
360 nM,COc1ccccc1CC(=O)NCc1cccnc1N1CCN(C(=O)[C@@H](Cc2ccc(Cl)cc2Cl)NC(=O)CCN)CC1,
440 nM,NCCC(=O)N[C@H](Cc1ccc(Cl)cc1Cl)C(=O)N1CCN(c2ncccc2CNC(=O)OCc2ccccc2)CC1,
10 nM,COc1ccccc1CCNCc1cccnc1N1CCN(C(=O)[C@@H](Cc2ccc(Cl)cc2Cl)NC(C)=O)CC1,CLint scaled [2]: 3500 mL/min/kg; bioavailability [3]: 0%
180 nM,COCC(C)NCc1cccnc1N1CCN(C(=O)[C@@H](Cc2ccc(Cl)cc2Cl)NC(C)=O)CC1 (stereo not given in full),
170 nM,NCCC(=O)N[C@H](Cc1ccc(Cl)cc1Cl)C(=O)N1CCN(c2ncccc2CNCC(F)(F)F)CC1,
550 nM,COc1ccc(CC(=O)NCc2cccnc2N2CCN(C(=O)[C@@H](Cc3ccc(Cl)cc3Cl)NC(=O)CCN)CC2)cc1,
480 nM,CC(C)(CO)NCc1cccnc1N1CCN(C(=O)[C@@H](Cc2ccc(Cl)cc2Cl)NC(=O)CCN)CC1,
200 nM,CCC(COC)NCc1cccnc1N1CCN(C(=O)[C@@H](Cc2ccc(Cl)cc2Cl)NC(=O)CCN)CC1 (stereo not given in full),
560 nM,COc1ccccc1CNC(=O)NCc1cccnc1N1CCN(C(=O)[C@@H](Cc2ccc(Cl)cc2Cl)NC(=O)CCN)CC1,
450 nM,NCCC(=O)N[C@H](Cc1ccc(Cl)cc1Cl)C(=O)N1CCN(c2ncccc2CNC(=O)Cc2ccccc2F)CC1,
6.7 nM,COc1ccccc1CCNCc1cccnc1N1CCN(C(=O)[C@@H](Cc2ccc(Cl)cc2Cl)NC(=O)CCN)CC1,Ki [4]: 2100 nM; CLint scaled [2]: 390 mL/min/kg; bioavailability [3]: 15%; Ki [5]: 5 µM
12 nM,NCCC(=O)N[C@H](Cc1ccc(Cl)cc1Cl)C(=O)N1CCN(c2ncccc2CNCCc2ccccc2F)CC1,
130 nM,NCCC(=O)N[C@H](Cc1ccc(Cl)cc1Cl)C(=O)N1CCN(c2ncccc2CNCc2ccccc2F)CC1,
87 nM,COCC(C)NCc1cccnc1N1CCN(C(=O)[C@@H](Cc2ccc(Cl)cc2Cl)NC(=O)CCN)CC1 (stereo not given in full),
21 nM,CC(=O)N[C@H](Cc1ccc(Cl)cc1Cl)C(=O)N1CCN(c2ncccc2CNCCc2cccs2)CC1,
15 nM,NCCC(=O)N[C@H](Cc1ccc(Cl)cc1Cl)C(=O)N1CCN(c2ncccc2CNCCc2cccs2)CC1,
310 nM,NCCC(=O)N[C@H](Cc1ccc(Cl)cc1Cl)C(=O)N1CCN(c2ncccc2CNC(=O)Cc2cccs2)CC1,
